For one compound, Activity results are on record in ChEMBL document CHEMBL5390254, “Discovery and Optimization of Novel hDHODH Inhibitors for the Treatment of Inflammatory Bowel Disease” (J Med Chem, 2023).

Experiment [1] relates to Mus musculus. Kind of experiment: Anti-inflammatory activity against DSS-induced acute ulcerative colitis in C57BL/6 mouse model assessed as increase in colon length at 80 mg/kg, po QD for 6 days (Rvb= 5.3cm). Type of experiment: functional. The conditions noted are these: time 6 day.
For experiment [2], the system named is Mus musculus. Kind of experiment: Anti-inflammatory activity against DSS-induced acute ulcerative colitis in C57BL/6 mouse model assessed as decrease in IL-1beta production in colon at 40 mg/kg, po QD for 6 days by ELISA. It counts as functional. Conditions: time 6.0 day.
Experiment [3] relates to Mus musculus. In words: Anti-inflammatory activity against DSS-induced acute ulcerative colitis in C57BL/6 mouse model assessed as decrease in colon tissue damage score at 40 mg/kg, po QD for 6 days relative to DSS group. It counts as functional. Also noted: scale not given: the % may be the effect or the level left. The conditions noted are these: time 6 day.
Experiment [4] deals with Mus musculus. In words: Anti-inflammatory activity against DSS-induced acute ulcerative colitis in C57BL/6 mouse model assessed as decrease in IL-17 production in colon at 40 mg/kg, po QD for 6 days by ELISA. Type of experiment: functional. The conditions noted are these: time 6.0 day.
Experiment [5] has as its system Mus musculus. Kind of experiment: Anti-inflammatory activity against DSS-induced acute ulcerative colitis in C57BL/6 mouse model assessed as decrease in IL-1beta mRNA expression level in colon at 40 mg/kg, po QD for 6 days by RT-PCR analysis. Type of experiment: functional, organism-based. The conditions noted are these: time 6.0 day.
For experiment [6], the system named is Mus musculus. Kind of experiment: Anti-inflammatory activity against DSS-induced acute ulcerative colitis in C57BL/6 mouse model assessed as decrease in colon length shortening at 40 mg/kg, po QD for 6 days (Rvb= 5.5cm). Type of experiment: functional. Conditions: time 6 day.
Experiment [7] deals with Mus musculus. Kind of experiment: Anti-inflammatory activity against DSS-induced acute ulcerative colitis in C57BL/6 mouse model assessed as decrease in IL-6 mRNA expression level in colon at 40 mg/kg, po QD for 6 days by RT-PCR analysis. It counts as functional, organism-based. Conditions: time 6.0 day.
In experiment [8] the test system is Mus musculus. In words: Anti-inflammatory activity against DSS-induced acute ulcerative colitis in C57BL/6 mouse model assessed as decrease in IL-17 mRNA expression level in colon at 40 mg/kg, po QD for 6 days by RT-PCR analysis. It counts as functional, organism-based. The conditions noted are these: time 6.0 day.
Experiment [9] has as its system Mus musculus. Kind of experiment: Anti-inflammatory activity against DSS-induced acute ulcerative colitis in C57BL/6 mouse model assessed as decrease in IL-6 production in colon at 40 mg/kg, po QD for 6 days by ELISA. It counts as functional. Conditions: time 6.0 day.
In experiment [10] the test system is Mus musculus. In words: Anti-inflammatory activity against DSS-induced acute ulcerative colitis in C57BL/6 mouse model assessed as decrease in body weight loss at 80 mg/kg, po QD for 6 days (Rvb= -13.4%). The conditions noted are these: time 6 day. Type of experiment: functional. Also noted: scale not given: the % may be the effect or the level left.

Structures are written as SMILES. The source made the active and inactive calls. The rule behind the calls is not given here.

`C[C@@H]1CCN(C(=O)CC#N)C[C@@H]1N(C)c1ncnc2[nH]ccc12` [TOFACITINIB]: the Activity in the experiment on Mus musculus [1] is recorded as 6.7 cm; with Mus musculus [3], 45.45%; in the experiment on Mus musculus [6], 6.3 cm; with Mus musculus [10], -3.9%. Also, the result in the experiment with Mus musculus [2], in the experiment with Mus musculus [4], in the experiment with Mus musculus [5], with Mus musculus [7], in the experiment with Mus musculus [8] and in the experiment on Mus musculus [9] was Active.
